Patent publication US20080154102A1, “Intraoperative imaging methods” (priority 2006, published 2008)

Columns and labels:
common bile duct [1] = test: Cholangiographic imaging with methylene blue in pigs; format: in vivo
Procedure: In anesthetized pigs, bile duct was visualized by intravenous injection of 100 μL/kg of 1% MB, or direct cannulation into the common bile duct for injection of 50 μM of MB. Fluorescence intensities of bile duct, liver (right lobe), and abdominal wall were measured at 3, 5, 10, 20, and 30 minutes following injection. For hepatic arteriography and portography, 0.06 mg/kg ICG (75 nmol/kg) is injected intravenously.

[2] = tested on: common bile duct, vasculature, coronary artery, myocardium; test: Multi-wavelength fluorescence imaging with MB and ICG; format: in vivo, pigs; details: pig, ICG 800 nm, MB 700 nm
Procedure: Therefore, MB was used to visualize CBD in an anesthetized pig, while ICG was used to visualize vasculature.
To evaluate the possibility of multi-wavelength fluorescent imaging, ICG and methylene blue were used.
1 mg/kg methylene blue IV injection was followed 30 min after by 0.03 mg/kg ICG IV injection. […] NIR camera exposure time was 100 msec.
Next, one of the diagonal branches of the coronary artery (D2) was clamped (white arrow), and then 1 mg/kg of methylene blue was injected intravenously; see the second row of images. Just after releasing the clamp, 0.03 mg/kg ICG was injected intravenously. […] The right-most image in the second row was created by merging the image of the coronary arteriography using methylene blue at clamping D2 and the image using ICG after declamping D2.

thoracic duct = test: Thoracic duct mapping in pigs; format: in vivo; details: 5 mL of 1% into inguinal lymph node
Procedure: In anesthetized pigs, 5 mL of 1% methylene blue was injected into an inguinal lymph node, then the thoracic duct was observed.

Absorbance spectrometry = format: physicochemical
Procedure: (§1) Absorbance spectrometry was performed with a 1-cm path length quartz cuvette in a USB2000 fiber-optic spectrometer (Ocean Optics, Dunedin, Fla.). Fluorescence spectrometry was performed with a 1-cm path length, 1.5 mL disposable methacrylate cuvette (Fisher Scientific, Hampton, N.H.) in a HR2000 fiber-optic spectrometer, and CUV-ALL-UV four-way cuvette holder (Ocean Optics), using a 655 nm laser diode light source (OPCOM O.E. Inc., Xiamen, China) with maximum output less than 5 mW. Data acquisition was performed with a computer using an OOI-Base32 spectrometer operating software package (Ocean Optics). The spectral range of the USB2000-FL spectrometer was from 350 to 1000 nm with spectral resolution of 7.6 nm, and that of the HR2000 spectrometer was from 200 to 1100 nm with a spectral resolution of 6.7 nm.

[3] = tested on: coronary arteries and myocardium; test: Angiographic and myocardial perfusion imaging in rats; format: in vivo
Procedure: (§2) Male Sprague-Dawley, 300 g rats obtained from Charles River Laboratories (Wilmington, Mass.) were anesthetized with 65 mg/kg IP pentobarbital. 30 kg adult female Yorkshire pigs (E.M. Parsons & Sons, Hadley, Mass.) were induced with 4.4 mg/kg intramuscular Terazol (Fort Dodge Labs, Fort Dodge, Iowa). Pigs were intubated and maintained with 1.5-2% isoflurane.
(§3) In anesthetized rats, 0.1, 0.5 and 1 mg/kg MB were injected intravenously, and then images were taken during 15 min after injection. Signal to background ratio (SBR) (the signal of left anterior descending branch of coronary artery (LAD) relative to that of chest wall, and the signal of myocardium relative to that of chest wall) was quantified using the same region of interest (ROI) through entire observation. In anesthetized pigs, 100 μL/kg of 0.5% methylene blue (1.6 μmol/kg) was injected intravenously and then the hearts were observed using the imaging system described herein. For multi-wavelength fluorescence imaging, 0.25 ml of 100 μM ICG (75 nmol/kg) was injected intravenously in rats and 0.06 mg/kg ICG (75 nmol/kg) in pigs.
The system was adjusted to account for the optical properties of methylene blue. Briefly, the light source of the original system is composed of a white light source and a near-infrared light source. The surgical field is illuminated with both lights, and its excitation fluence rate is 5 mW/cm^2. White light and near-infrared images were able to be captured separately using a dichroic filter cube set, and these images could be merged. Images were captured and refreshed 15 times a second.
The system was modified in 3 ways for use with MB. First, the white lights were filtered with HQ675SP (Chroma Technology, Brattleboro, Vt.). Second, 4 pairs of 400 mA, 660 nm LEDs were added and filtered with HQ650/45X (chroma.) instead of the near-infrared light source. Excitation fluence rate with this new light source is 1 mW/cm^2. Third, the dichroic filter and emission filter were changed to 680 dcxr (chroma.), HQ700/35 (chroma.), respectively.

[4] = clinical use; cited from earlier work
common bile duct [5] = test: Cholangiographic imaging with methylene blue in rats; format: in vivo; details: 1 mg/kg iv
Procedure: In anesthetized rats, 100 μL/kg of 1% MB (1 mg/kg) was injected intravenously via penile vein. A simultaneous color video/NIR fluorescence intraoperative imaging system was employed for quantification of fluorescence images. For multi-wavelength fluorescence imaging, 0.25 ml of 100 uM ICG (75 nmol/kg) was injected intravenously in rat and hepatic arteriography and portography can be seen.

[6] = Environment-, concentration- and pH-dependence of MB fluorescence; format: physicochemical
Procedure: For the experiment shown in FIG. 1A, pure methylene blue powder was dissolved in phosphate-buffered saline (pH 7.4), 100% fetal bovine serum, or absolute methanol, at the concentration shown, and fluorescence intensity (arbitrary values) measured.
For this experiment, pure methylene blue powder was dissolved in PBS, FBS, or methanol, at the concentrations shown in FIGS. 1A-C, the spectrum of its absorbance and fluorescence emission obtained, and the peak of each identified.
Finally, the pH dependence of MB was examined, by dissolving MB in PBS (pH 6), Ascorbic Acid, HCl, and a NaHCO3-buffered solution. […] This is an important consideration because intermolecular quenching and internal absorption often limit the usable dose range of fluorescent contrast agents.

ureter = test: Ureteral mapping with methylene blue in pigs; format: in vivo; details: preclinical studies, in some cases
Procedure: In anesthetized 3 pigs, 1 mg/kg of methylene blue was injected intravenously and then the abdomen was opened surgically and ureter was identified by imaging. For pelvic arteriography, 0.06 mg/kg ICG (75 nmol/kg) was injected intravenously.

parathyroid gland = test: Parathyroid gland imaging using methylene blue; format: in vivo; details: 2 mg/kg over 15 minutes, along with NaHCO3
Procedure: To determine whether MB fluorescence emissions could be used to image the parathyroid gland, 2 mg/kg MB was administered over 15 minutes, along with NaHCO3, prior to surgery.

[7] = tested on: coronary arteries and myocardium; test: Angiographic and myocardial perfusion imaging in pigs; format: in vivo
Procedure: as §2, §3
The system was adjusted to account for the optical properties of methylene blue. Briefly, the light source of the original system is composed of a white light source and a near-infrared light source. The surgical field is illuminated with both lights, and its excitation fluence rate is 5 mW/cm^2. […]

[8] = Fluorescence spectrometry and fluorescence quantum yield; format: physicochemical
Procedure: as §1
Fluorescence intensity was measured in each solvent (PBS, FBS, and methanol) at each concentration of the dye to determine the effect of the methylene blue concentration and solvents on total fluorescence yield. Fluorescence quantum yields of methylene blue in PBS, FBS, and methanol were calculated using oxazine725 in ethylene glycol (quantum yield: 19%) as a calibration standard, under the conditions of matched absorbance of methylene blue in each solvent.

CN(C)c1ccc2nc3ccc(=[N+](C)C)cc-3sc2c1 [Methylene Blue, methylene blue]
CBD visualization after direct retrograde administration (common bile duct [1]; direct cannulation into CBD): successfully visualized the CBD | identification of intrahepatic bile duct by fluorescence (common bile duct [1]; during hepatic dissection): not identifiable | detection of common bile duct (common bile duct [1]; intravenous): detectable | structure shown in two-channel NIR imaging [2]: shows the CBD | thoracic duct in the color image (thoracic duct): very faint blue color | thoracic duct in the fluorescence image (thoracic duct): clearly visualized in the fluorescence image | Excitation Wavelength Maximum, (FBS) (Absorbance spectrometry; in FBS): 666 nm | Molar Extinction Coefficient, (FBS) (Absorbance spectrometry; in FBS): 86500 M⁻¹ cm⁻¹ | Excitation Wavelength Maximum, PBS (Absorbance spectrometry; in PBS): 665 nm | Molar Extinction Coefficient, PBS (Absorbance spectrometry; in PBS): 71500 M⁻¹ cm⁻¹ | Excitation Wavelength Maximum, [MtOH] (Absorbance spectrometry; in methanol): [653] nm | Molar Extinction Coefficient, [MtOH] (Absorbance spectrometry; in methanol): [71500] M^−1cm^−1 | detection of peripheral branches and coronary vein [3]: not detectable | intravascular (arterial) signals ([3]; 0.1 mg/kg intravenously): not detected | detection of coronary arteries ([3]; 0.5 and 1.0 mg/kg intravenously): could be detected | homogenous signal from the heart wall ([3]; all loading doses): detectable | dose that sometimes causes severe adverse reactions (methemoglobinaemia or anaphylaxis) [4]: 7.5 mg/kg | dye stacking in the liver (common bile duct [5]): No dye stacking in the liver was observed | time of maximal ratio of CBD intensity relative to pancreas and liver (common bile duct [5]): around 10 minutes | time ratio of CBD intensity stayed steady after injection (common bile duct [5]): at least 30 minutes | time until CBD detectable after intravenous injection (common bile duct [5]): 2 to 3 min | fluorescence in acidic solutions ([6]; Ascorbic Acid, HCl): essentially no fluorescence | fluorescence at the more basic pH ([6]; PBS (pH 6), NaHCO3-buffered solution): significant fluorescence | pH favoring the fluorescent methylene blue form ([6]; equilibrium with leucomethylene blue): ≥ 6 | concentration of peak fluorescence intensity ([6]; intermediate concentrations): 4 to 50 µM | performance in the ureter (ureter): less than optimal performance | visibility of the parathyroid (parathyroid gland): visible | signal of myocardium distal to occlusion vs well-perfused myocardium ([7]; ligation of diagonal branch of left anterior descending artery): five-fold lower signal | average SBR of whole heart wall fluorescence ([7]; pig, intravenous injection via external jugular vein): about 1.5 | Emission Wavelength Maximum, (FBS) ([8]; in FBS): 685 (685) nm | Fluorescence Quantum Yield, (FBS) ([8]; in FBS): 2.5% | Emission Wavelength Maximum, PBS ([8]; in PBS): 685 (685) nm | Fluorescence Quantum Yield, PBS ([8]; in PBS): 5.5% | Emission Wavelength Maximum, [MtOH] ([8]; in methanol): [681] nm | Fluorescence Quantum Yield, [MtOH] ([8]; in methanol): [9.5] % | emission wavelength of MB ([8]; peak shifts as a function of dye concentration, listed as MB): 690-700 nm
